Data published in ChEMBL document CHEMBL3872214, “Synthesis and evaluation of in vivo antioxidant, in vitro antibacterial, MRSA and antifungal activity of novel substituted isatin N-(2,3,4,6-tetra-O-acetyl-β-d-glucopyranosyl)thiosemicarbazones” (Eur J Med Chem, 2016).
Values after ≈ are worked out from the molar mass of the structure shown.

How the values were obtained:
[1] = Cytotoxicity against human SW480 cells after 3 days by MTT assay; type: functional, cell-based; settings: SW480, 72 h
[2] = Cytotoxicity against human KB cells after 3 days by MTT assay; type: functional, cell-based; settings: 72 h
[3] = Cytotoxicity against mouse NIH/3T3 cells after 3 days by MTT assay; type: toxicity, NIH3T3
[4] = Cytotoxicity against human HepG2 cells after 3 days by MTT assay; type: functional, cell-based; settings: HepG2, 72 h
[5] = Cytotoxicity against mouse […] cells after 3 days by MTT assay; type: functional, cell-based; settings: 72 h
[6] = Cytotoxicity against human Lu1 cells after 3 days by MTT assay; type: functional, cell-based; settings: Lu1, 72 h
[7] = Cytotoxicity against human MCF7 cells after 3 days by MTT assay; type: functional, cell-based; settings: MCF7, 72 h
[8] = tested on: Staphylococcus aureus; assay: Antibacterial activity against methicillin-resistant Staphylococcus aureus 198-1 after 18 to 20 hrs by two-fold microbroth dilution method; type: functional
[9] = tested on: Klebsiella aerogenes; assay: Antibacterial activity against Enterobacter aerogenes ATCC 13048 after 18 to 20 hrs by two-fold microbroth dilution method; type: functional
[10] = tested on: Rattus norvegicus; assay: (§1) Antioxidant activity in CCL4-intoxicated Wistar albino rat assessed as liver cytosolic catalase activity per mg protein at 100 mg/kg, ip administered for 7 consecutive days after DL-alpha-tocopherol acetate treatment followed by CCL4 dosing measured after 24 hrs by H2O2 based assay (reference value: 220.15 +/- 11.43 U); type: functional
[11] = tested on: Staphylococcus aureus; assay: Antibacterial activity against Staphylococcus aureus ATCC 11632 after 18 to 20 hrs by two-fold microbroth dilution method; type: functional
[12] = tested on: Escherichia coli; assay: Antibacterial activity against Escherichia coli ATCC 25922 after 18 to 20 hrs by two-fold microbroth dilution method; type: functional
[13] = tested on: Staphylococcus epidermidis; assay: Antibacterial activity against Staphylococcus epidermidis ATCC 12228 after 18 to 20 hrs by two-fold microbroth dilution method; type: functional
[14] = tested on: Candida albicans; assay: Antifungal activity against Candida albicans ATCC 7754 after 72 hrs by agar dilution method; type: functional; settings: ATCC 7754, 72 h
[15] = tested on: Pseudomonas aeruginosa; assay: Antibacterial activity against Pseudomonas aeruginosa […] after 18 to 20 hrs by two-fold microbroth dilution method; type: functional
[16] = tested on: Bacillus subtilis; assay: Antibacterial activity against Bacillus subtilis ATCC 11774 after 18 to 20 hrs by two-fold microbroth dilution method; type: functional
[17] = Antifungal activity against Saccharomyces cerevisiae SH20 after 72 hrs by agar dilution method; type: functional
[18] = tested on: Staphylococcus aureus; assay: Antibacterial activity against methicillin-resistant Staphylococcus aureus 198-2 after 18 to 20 hrs by two-fold microbroth dilution method; type: functional
[19] = tested on: Rattus norvegicus; assay: as §1, with “glutathione peroxidase” for “catalase”, “spectrophotometric analysis” for “assay”, “0.28” for “220.15”, “0.01” for “11.43”; type: functional
[20] = tested on: Klebsiella pneumoniae; assay: Antibacterial activity against Klebsiella pneumoniae ATCC 4352 after 18 to 20 hrs by two-fold microbroth dilution method; type: functional
[21] = tested on: Rattus norvegicus; assay: as §1, with “superoxide dismutase” for “catalase”, “xanthine” for “H2O2”, “5.27” for “220.15”, “0.22” for “11.43”; type: functional
[22] = tested on: Staphylococcus aureus; assay: Antibacterial activity against methicillin-resistant Staphylococcus aureus 198-3 after 18 to 20 hrs by two-fold microbroth dilution method; type: functional
[23] = Antifungal activity against Fusarium oxysporum M42 after 72 hrs by agar dilution method; type: functional
[24] = tested on: Aspergillus niger; assay: Antifungal activity against Aspergillus niger 439 after 72 hrs by agar dilution method; type: functional; settings: Aspergillus niger, 439, 72 h

Compound	IC50 [1] [µM]	IC50 [2] [µM]	IC50 at 3 days [3] [µM]	MIC [8] [µM]	MIC [9] [µM]	Activity [10] [U]	MIC [11] [µM]	MIC [12] [µM]	MIC [13] [µM]	MIC [14] [µM]	MIC [15] [µM]	MIC [16] [µM]	MIC [17] [µM]	MIC [18] [µM]	Activity [19] [U]	MIC [20] [µM]	Activity [21] [U]	MIC [22] [µM]	MIC [23] [µM]	MIC [24] [µM]	also measured
Cc1c2ccncc2c(C)c2c1[nH]c1ccccc12 [ELLIPTECINE]	0.75	0.52	0.32																		IC50 [4]: 1.95 µM; IC50 [5]: 1.27 µM; IC50 [6]: 1.39 µM; IC50 [7]: 0.53 µM
CC(=O)OC[C@H]1O[C@@H](NC(=S)N/N=C2/C(=O)Nc3c(Br)cc(Br)cc32)[C@H](OC(C)=O)[C@@H](OC(C)=O)[C@@H]1OC(C)=O	4.75	12.8	1.53	0.78 (≈ 0.553 µg/mL)	50 (≈ 35.4 µg/mL)	397.53	1.56 (≈ 1.11 µg/mL)	50 (≈ 35.4 µg/mL)	1.56 (≈ 1.11 µg/mL)	6.25 (≈ 4.43 µg/mL)	50 (≈ 35.4 µg/mL)	1.56 (≈ 1.11 µg/mL)	6.25 (≈ 4.43 µg/mL)	0.78 (≈ 0.553 µg/mL)	0.31	50 (≈ 35.4 µg/mL)	10.89	0.78 (≈ 0.553 µg/mL)	12.5 (≈ 8.85 µg/mL)	3.12 (≈ 2.21 µg/mL)	IC50 [4]: 8.41 µM; IC50 [5]: 18.4 µM; IC50 [6]: 5.53 µM; IC50 [7]: 2.75 µM
C=CCN1C(=O)/C(=N/NC(=S)N[C@@H]2O[C@H](COC(C)=O)[C@@H](OC(C)=O)[C@H](OC(C)=O)[C@H]2OC(C)=O)c2ccccc21				200 (≈ 118 µg/mL)	100 (≈ 59.1 µg/mL)	357.47	200 (≈ 118 µg/mL)	100 (≈ 59.1 µg/mL)	200 (≈ 118 µg/mL)	100 (≈ 59.1 µg/mL)	100 (≈ 59.1 µg/mL)	200 (≈ 118 µg/mL)	100 (≈ 59.1 µg/mL)	200 (≈ 118 µg/mL)	0.27	100 (≈ 59.1 µg/mL)	9.91	200 (≈ 118 µg/mL)	200 (≈ 118 µg/mL)	200 (≈ 118 µg/mL)	
CC(=O)OC[C@H]1O[C@@H](NC(=S)N/N=C2/C(=O)N(C)c3ccccc32)[C@H](OC(C)=O)[C@@H](OC(C)=O)[C@@H]1OC(C)=O				100 (≈ 56.5 µg/mL)	12.5 (≈ 7.06 µg/mL)	350	100 (≈ 56.5 µg/mL)	12.5 (≈ 7.06 µg/mL)	100 (≈ 56.5 µg/mL)	100 (≈ 56.5 µg/mL)	25 (≈ 14.1 µg/mL)	100 (≈ 56.5 µg/mL)	100 (≈ 56.5 µg/mL)	100 (≈ 56.5 µg/mL)	0.67	12.5 (≈ 7.06 µg/mL)	9.52	100 (≈ 56.5 µg/mL)	200 (≈ 113 µg/mL)	25 (≈ 14.1 µg/mL)	
